Assay results taken from ChEMBL document CHEMBL6120940, “Discovery of N-Aryl-N'-[4-(aryloxy)cyclohexyl]squaramide-Based Inhibitors of LXR/SREBP-1c Signaling Pathway Ameliorating Steatotic Liver Disease: Navigating the Role of SIRT6 Activation” (J Med Chem, 2024).
Active and inactive are the calls of the source. The rule behind the calls is not given here.

Assays:
[1] = AUC last in 16 hrs fasted ICR mouse at 2 mg/kg, iv measured upto 8 hrs by LC-MS/MS analysis; assay type: ADME, organism-based; details: in vivo
HepG2 [2] = assay: Downregulation of acetylated histone H3K9 level in human HepG2 cells preincubated for 30 mins followed by T0901317 addition and measured after 12 hrs; assay type: functional, cell-based; details: dose 5-10 µM, time 12.5 hrs
Mus musculus [3] = assay: Anti-lipogenic activity against high fat died induced male C57BL/6J mouse obesity model assessed as reduction ALT level in serum at 15 mg/kg, po administered three times per week and measured for 5 weeks; assay type: functional, organism-based
HepG2 [4] = assay: Downregulation of ACLY gene expression in human HepG2 cells in presence of T0901317 by RNA sequencing analysis; assay type: functional, cell-based
Hepatocyte [5] = assay: Inhibition of Srebp-1c level in mouse hepatocyte at 10 uM preincubated with compound for 30 mins followed by T0901317 addition and measured after 12 hrs; assay type: functional, cell-based; details: time 12.5 hrs
Hepatocyte [6] = assay: Effect on Acox-1 gene expression in mouse hepatocyte; assay type: functional, cell-based
[7] = Metabolic stability in human liver microsomes at 1 uM measured after 30 mins in presence of NADPH regeneration system by LC-MS/MS analysis; assay type: ADME, Microsome; details: read-out: Stability
HepG2 [8] = assay: Downregulation of SREBP-1c level in human HepG2 cells at 10 uM preincubated for 30 mins followed by OSS128167 addition and measured after 12 hrs; assay type: functional, cell-based; details: time 12.5 hrs
Mus musculus [9] = assay: Anti-lipogenic activity against high fat died induced male C57BL/6J mouse obesity model assessed as reduction in liver weight at 15 mg/kg, po administered three times per week and measured for 5 weeks; assay type: functional, organism-based
Mus musculus [10] = assay: Anti-lipogenic activity against high fat died induced male C57BL/6J mouse obesity model assessed as decrease in hepatic fat content at 15 mg/kg, po administered three times per week and measured for 5 weeks by Oil red O staining based analysis; assay type: functional, organism-based
CYP2D6 = CYP2D6 (Homo sapiens, UniProt P10635); assay: Inhibition of CYP2D6 in human liver microsomes at 10 uM using dextromethorphan as substrate preincubated for 5 mins followed by NADPH generating system addition and measured after 15 mins relative to control; assay type: ADME, Microsome; details: probe dextromethorphan, time 20 min
HepG2 [11] = assay: Downregulation of ACACA mRNA level in human HepG2 cells at 10 uM pretreated with compound for 30 mins followed by […] addition and measured after 12 hrs by RT-qPCR analysis; assay type: functional, cell-based; details: time 12.5 hrs
HepG2 [12] = assay: Downregulation of LXR level in human HepG2 cells at 10 uM preincubated for 30 mins followed by OSS128167 addition and measured after 12 hrs; assay type: functional, cell-based; details: time 12.5 hrs
HepG2 [13] = assay: Cytotoxicity against human HepG2 cells at >30 uM measured after 24 hrs by CCK-8 method; assay type: functional, cell-based
HepG2 [14] = assay: Cytotoxicity against human HepG2 cells at 10 uM measured after 24 hrs by CCK-8 method relative to control; assay type: functional
HepG2 [15] = assay: Downregulation of ACACA mRNA level in human HepG2 cells at 10 uM pretreated with compound for 30 mins followed by T0901317 addition and measured after 12 hrs by RT-qPCR analysis; assay type: functional, cell-based; details: time 12.5 hrs
HepG2 [16] = assay: Downregulation of ACACA expression level in human HepG2 cells at 5 to 10 uM pretreated with compound for 30 mins followed by T0901317 addition and measured after 12 hrs by RT-qPCR analysis; assay type: functional, cell-based; details: dose 5-10 µM, time 12.5 hrs
HepG2 [17] = assay: Downregulation of SREBP-1c expression in human HepG2 cells at 5 uM pretreated with compound for 30 mins followed by T0901317 addition and measured after 12 hrs in presence of compound C by immunoblot analysis; assay type: functional, cell-based; details: time 12.5 hrs
[18] = Oral bioavailability in 16 hrs fasted ICR mouse at 20 mg/kg measured upto 8 hrs by LC-MS/MS analysis; assay type: ADME, organism-based; details: in vivo
Hepatocyte [19] = assay: Inhibition of Scd level in mouse hepatocyte at 10 uM preincubated with compound for 30 mins followed by T0901317 addition and measured after 12 hrs; assay type: functional, cell-based; details: time 12.5 hrs
HepG2 [20] = assay: Downregulation of SREBP-1 level in human HepG2 cells transfected with SIRT6 SiRNA at 10 uM preincubated for 30 mins followed by T0901317 addition and measured after 12 hrs; assay type: functional, cell-based; details: time 12.5 hrs
[21] = biological target: T1, Oxysterols receptor LXR-alpha (Homo sapiens) (UniProt Q13133); assay: Inhibition of LXRalpha in HEK293 cells expressing LXRE at 2.5 to 5 uM preincubated for 30 mins followed by T0901317 addition and measured after 24 hrs by Dual-glo luciferase assay; assay type: cell-based; details: dose 2.5-5 µM, time 24.5 hrs
T1 sequence (whole entry): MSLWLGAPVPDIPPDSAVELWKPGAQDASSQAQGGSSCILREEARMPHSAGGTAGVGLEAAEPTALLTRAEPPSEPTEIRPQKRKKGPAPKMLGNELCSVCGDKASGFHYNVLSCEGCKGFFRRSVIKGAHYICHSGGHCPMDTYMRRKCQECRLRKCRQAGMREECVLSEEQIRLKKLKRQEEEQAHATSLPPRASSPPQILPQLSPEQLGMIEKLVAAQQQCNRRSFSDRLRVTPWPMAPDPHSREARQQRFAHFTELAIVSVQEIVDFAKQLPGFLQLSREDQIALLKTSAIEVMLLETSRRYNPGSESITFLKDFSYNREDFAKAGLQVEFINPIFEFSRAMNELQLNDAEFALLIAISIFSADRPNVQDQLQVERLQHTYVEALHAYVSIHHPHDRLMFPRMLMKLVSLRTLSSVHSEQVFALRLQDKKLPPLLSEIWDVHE

HepG2 [22] = assay: Downregulation of LXRalpha expression level in human HepG2 cell lysate at 10 uM preincubated with compound for 30 mins followed by T0901317 addition and measured after 24 hrs by immunoblot analysis; assay type: functional, subcellular; details: time 24.5 hrs
[23] = biological target: NAD-dependent protein deacylase sirtuin-6 (Homo sapiens) (UniProt Q8N6T7); assay: Activation of recombinant SIRT6 (unknown origin) using fluoro-substrate peptide as substrate at 2.5 to 400 uM by fluorescence based analysis; details: filed as activator, dose 2.5-400 µM
Hepatocyte [24] = assay: Effect on Acad-1 gene expression in mouse hepatocyte; assay type: functional, cell-based
Mus musculus [25] = assay: Anti-lipogenic activity against high fat died induced male C57BL/6J mouse obesity model assessed as downregulation of Cxcl10 mRNA level at 15 mg/kg, po administered three times per week and measured after 5 weeks by RT-qPCT analysis; assay type: functional, organism-based
HepG2 [26] = assay: Downregulation of acetylated histone H3K9 level in human HepG2 cells at 5 to 10 uM preincubated for 30 mins followed by OSS128167 addition and measured after 12 hrs; assay type: functional, cell-based; details: dose 5-10 µM, time 12.5 hrs
HepG2 [27] = assay: Downregulation of SCD gene expression in human HepG2 cells in presence of T0901317 by RNA sequencing analysis; assay type: functional, cell-based
HepG2 [28] = assay: Activation of AMPK in human HepG2 cells assessed as increase in ratio of ACACA phosphorylation to total ACACA at 5 uM pretreated with compound for 30 mins followed by T0901317 addition and measured after 12 hrs by immunoblot analysis; assay type: cell-based; details: filed as activator, time 12.5 hrs
Hepatocyte [29] = assay: Inhibition of Fasn level in mouse hepatocyte at 10 uM preincubated with compound for 30 mins followed by T0901317 addition and measured after 12 hrs; assay type: functional, cell-based; details: time 12.5 hrs

NAD-dependent protein deacylase sirtuin-6 (Homo sapiens), sequence (Q8N6T7 whole entry): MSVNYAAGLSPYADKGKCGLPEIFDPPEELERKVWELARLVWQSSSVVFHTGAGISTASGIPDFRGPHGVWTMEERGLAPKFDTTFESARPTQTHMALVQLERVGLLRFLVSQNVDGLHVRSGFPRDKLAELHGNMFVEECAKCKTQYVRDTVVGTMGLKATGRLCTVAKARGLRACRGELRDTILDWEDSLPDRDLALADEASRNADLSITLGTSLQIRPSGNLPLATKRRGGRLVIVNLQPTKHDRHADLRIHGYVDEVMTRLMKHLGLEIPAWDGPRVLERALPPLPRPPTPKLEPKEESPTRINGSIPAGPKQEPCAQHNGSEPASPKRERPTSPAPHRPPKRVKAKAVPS
CYP2D6, sequence (P10635 whole entry): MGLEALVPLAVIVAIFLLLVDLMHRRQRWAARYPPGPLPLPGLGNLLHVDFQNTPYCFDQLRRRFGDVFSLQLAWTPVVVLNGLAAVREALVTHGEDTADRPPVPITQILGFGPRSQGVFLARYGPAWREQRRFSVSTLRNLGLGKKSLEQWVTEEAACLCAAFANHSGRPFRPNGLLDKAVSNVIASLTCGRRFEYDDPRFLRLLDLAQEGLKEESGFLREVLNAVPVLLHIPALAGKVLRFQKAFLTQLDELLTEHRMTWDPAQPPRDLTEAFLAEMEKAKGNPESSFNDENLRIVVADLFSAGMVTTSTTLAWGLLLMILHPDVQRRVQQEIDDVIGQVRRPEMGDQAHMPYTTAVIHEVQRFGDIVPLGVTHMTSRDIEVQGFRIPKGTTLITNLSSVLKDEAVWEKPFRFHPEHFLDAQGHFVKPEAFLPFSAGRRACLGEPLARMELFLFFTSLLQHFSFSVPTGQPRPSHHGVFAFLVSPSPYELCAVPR

COc1ccccc1Nc1c(N[C@H]2CC[C@H](Oc3ccc([N+](=O)[O-])cc3)CC2)c(=O)c1=O
AUC(0-t) at 8 h [1]: 2370 ng·h/mL | Activity (HepG2 [2]): Dose-dependent-effect | Activity (Mus musculus [3]): Active | Activity (HepG2 [4]): Active | inhibition (Hepatocyte [5]): Active | Activity (Hepatocyte [6]): inactive | remaining at 0.5 h, 1 µM [7]: 34.2% | Activity (HepG2 [8]): inactive | Activity (Mus musculus [9]): Active | Activity (Mus musculus [10]): Active | inhibition at 0.25 h, 10 µM (CYP2D6): > 100% | Activity (HepG2 [11]): Active | Activity (HepG2 [12]): inactive | Activity (HepG2 [13]): Active | Activity (HepG2 [14]): 90.3% | Activity (HepG2 [15]): Active | Activity (HepG2 [16]): Active | Activity (HepG2 [17]): inactive | bioavailability [18]: 11.2% | inhibition (Hepatocyte [19]): Active | Activity (HepG2 [20]): inactive | inhibition [21]: Active | Activity (HepG2 [22]): Active | Activity [23]: Active | Activity (Hepatocyte [24]): inactive | Activity (Mus musculus [25]): Active | Activity (HepG2 [26]): inactive | Activity (HepG2 [27]): Active | Activity (HepG2 [28]): Active | inhibition (Hepatocyte [29]): Active
